Measurements reported in patent US20070003987A1, “Screening method for substance binding to merozoite surface protein-1/42” (priority 2003, published 2007).

Columns and labels:
P. vivax MSP142 = biological target: T1, P. vivax MSP142 (Plasmodium vivax, UniProt Q02569, A1444G/T1362K/T1451N); experiment: isothermal titration calorimetry; assay type: binding
T1 sequence (Q02569 1325-1704 T1362K/A1444G/T1451N): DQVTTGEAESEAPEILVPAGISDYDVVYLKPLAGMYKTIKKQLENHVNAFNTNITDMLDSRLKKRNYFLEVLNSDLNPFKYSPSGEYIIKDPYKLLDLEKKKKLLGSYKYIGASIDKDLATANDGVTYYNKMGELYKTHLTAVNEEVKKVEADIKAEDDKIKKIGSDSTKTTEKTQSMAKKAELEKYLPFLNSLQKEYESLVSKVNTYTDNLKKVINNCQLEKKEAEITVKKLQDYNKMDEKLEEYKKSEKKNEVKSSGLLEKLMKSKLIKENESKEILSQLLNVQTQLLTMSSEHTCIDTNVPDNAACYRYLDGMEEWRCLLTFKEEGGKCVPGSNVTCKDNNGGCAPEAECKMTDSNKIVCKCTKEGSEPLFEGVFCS
Description: The MSP142 protein from P. vivax was cloned into plasmid jmp28, a modified pET-28 vector that encodes an N-terminal peptide MHHHHHHIEGRWIL immediately upstream of the inserted sequence. P. vivax (Belem strain) DNA was used as a template for PCR based cloning. The sequence of the expressed protein (following the vector encoded N-terminal peptide) corresponded to residues Asp 1325 to Ser 1704, Accession number A39401.
The protein was expressed in BL21(DE3)pLysS cells by induction of a culture at an OD600 of 0.6-0.8 with IPTG at a final concentration of 1 mM. The cells were induced for 3 h at 37° C. and then harvested by centrifugation. The cells were lysed using the Bugbuster protein extraction reagent (Novagen), after centrifugation of the cell lysate, the pellet containing the MSP142 was dissolved in 6M Guanidine-HCl, 100 mM Na2HPO4, 10 mM Tris-HCl, pH 8.0. This was applied to a Ni-NTA column, washed with 10 column volumes of the loading buffer, followed by 6 column volumes of 8 M Urea, 100 mM Na2HPO4, 10 mM Tris-HCl, at pH 7.0, and 6 column volumes at pH 6.1. The protein was eluted in 3 column volumes 8 M Urea, 100 mM Na2HPO4, 10 mM Tris-HCl, pH 4.3. […]
In addition to the fluorimetry, isothermal titration calorimetry (ITC) was performed using a Microcal omega VP-ITC (MicroCal Inc., Northampton, Mass.). […] The heat of dilution of suramin into buffer was determined in control experiments. […]

P. vivax MSP133 = experiment: binding of suramin by fluorimetry
Experimental: P. vivax MSP133 was expressed using the P. vivax MSP142 clone, above, as a template for PCR, followed by ligation of the product into vector pET30Xa/LIC. The sequence runs from Asp 1325 to Ser 1618 (Accession number A39401) following the N-terminal purification tag. The vector was used to transform BL21(DE3)pLysS cells. For expression, a culture of the transformed cells was induced at an OD600 of 0.6-0.8 at 37° C. with 1 mM IPTG for 3 h. The cells were harvested by centrifugation and the cell pellet lysed using the Bugbuster protein extraction reagent (Novagen). The cell lysate was cleared by centrifugation and the supernatant loaded directly onto a Ni-NTA column. […]
The intrinsic fluorescence of suramin was used to determine its capacity to bind to the various MSP1-derived proteins. The fluorescence was measured using a Perkin Elmer LS-3B or a Spex Fluoro Max 2 fluorimeter. Suramin was excited at a wavelength of 315 or 330 nm with 2.5 nm resolution, the emission spectra were measured at wavelengths ranging from 350-450 nm. Suramin and the MSP1 proteins were diluted in 20 mM NaH2PO4, 150 mM NaCl at pH 7.2 and analysed at 10 or 20° C. […] The Kd for the suramin-MSP1 binding was determined from three independent experiments.

Cc1ccc(C(=O)Nc2ccc(S(=O)(=O)O)c3cc(S(=O)(=O)O)cc(S(=O)(=O)O)c23)cc1NC(=O)c1cccc(NC(=O)Nc2cccc(C(=O)Nc3cc(C(=O)Nc4ccc(S(=O)(=O)O)c5cc(S(=O)(=O)O)cc(S(=O)(=O)O)c45)ccc3C)c2)c1 [suramin]
Kd (P. vivax MSP142): 300 ± 100 nM
AH value (P. vivax MSP142; ITC, 25° C.): 11 ± 1 kcal/mol
enhancement of intrinsic suramin fluorescence on binding (P. vivax MSP133): large binding-induced enhancements
